Tests used:
Cytochrome P450 3A4 = Cytochrome P450 3A4 (Homo sapiens, UniProt P08684); assay: Inhibition of human CYP3A4 by radiometric assay; format: ADME
Cytochrome P450 2D6 = Cytochrome P450 2D6 (Homo sapiens, UniProt P10635); assay: Inhibition of human CYP2D6 by radiometric assay; format: ADME
Chain of Cytochrome P450 2D6 (P10635 whole entry): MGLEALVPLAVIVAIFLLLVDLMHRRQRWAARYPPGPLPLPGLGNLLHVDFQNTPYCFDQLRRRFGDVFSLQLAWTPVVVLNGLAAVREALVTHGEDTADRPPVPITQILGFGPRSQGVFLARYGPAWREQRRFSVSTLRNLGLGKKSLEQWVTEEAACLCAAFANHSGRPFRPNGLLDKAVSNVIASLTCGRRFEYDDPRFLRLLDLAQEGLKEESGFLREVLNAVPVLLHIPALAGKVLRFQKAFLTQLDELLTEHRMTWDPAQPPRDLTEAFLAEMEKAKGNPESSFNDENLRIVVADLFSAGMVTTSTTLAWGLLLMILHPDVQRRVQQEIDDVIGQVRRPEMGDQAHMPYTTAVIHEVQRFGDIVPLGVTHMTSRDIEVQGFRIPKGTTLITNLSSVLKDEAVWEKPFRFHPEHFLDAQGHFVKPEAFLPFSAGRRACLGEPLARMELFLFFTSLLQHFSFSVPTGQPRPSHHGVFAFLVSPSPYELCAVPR

Chain of Cytochrome P450 3A4 (P08684 whole entry): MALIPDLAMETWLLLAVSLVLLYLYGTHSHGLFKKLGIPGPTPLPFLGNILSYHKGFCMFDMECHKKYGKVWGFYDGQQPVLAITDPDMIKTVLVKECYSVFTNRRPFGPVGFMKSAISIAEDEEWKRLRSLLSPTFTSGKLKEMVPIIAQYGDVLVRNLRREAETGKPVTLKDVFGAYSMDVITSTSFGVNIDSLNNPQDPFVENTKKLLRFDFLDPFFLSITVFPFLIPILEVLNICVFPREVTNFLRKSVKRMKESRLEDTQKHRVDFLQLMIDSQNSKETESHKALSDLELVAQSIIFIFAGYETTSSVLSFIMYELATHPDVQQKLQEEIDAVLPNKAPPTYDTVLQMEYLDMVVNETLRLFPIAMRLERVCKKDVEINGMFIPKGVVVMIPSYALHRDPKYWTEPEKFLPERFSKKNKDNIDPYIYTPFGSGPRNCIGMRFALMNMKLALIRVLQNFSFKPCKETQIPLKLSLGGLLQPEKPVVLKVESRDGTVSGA

SMILES | IC50 (Cytochrome P450 3A4) | IC50 (Cytochrome P450 2D6)
CC(=O)O[C@@H]1[C@@H](OC(C)=O)[C@@H](O)[C@H](Oc2c(-c3ccc(O)cc3)oc3cc(O)cc(O)c3c2=O)O[C@H]1C | 20.6 µM | 50.5 µM
CC(=O)O[C@@H]1[C@@H](O)[C@H](C)O[C@@H](Oc2c(-c3ccc(O)cc3)oc3cc(O)cc(O)c3c2=O)[C@@H]1O | 98.3 µM | > 100 µM
CC(=O)O[C@@H]1[C@@H](O)[C@@H](OC(C)=O)[C@H](Oc2c(-c3ccc(O)cc3)oc3cc(O)cc(O)c3c2=O)O[C@H]1C | 31.6 µM | > 100 µM
C/C1=C\[C@H](O)C[C@@]2(C)O[C@@H]2CC(C)(C)/C=C/C1=O | 62.5 µM | > 100 µM
CC(=O)O[C@@H]1[C@@H](OC(C)=O)[C@H](C)O[C@@H](Oc2c(-c3ccc(O)cc3)oc3cc(O)cc(O)c3c2=O)[C@@H]1OC(C)=O | 14.4 µM | 43.3 µM
COc1ccc(-c2oc3cc(O)cc(O)c3c(=O)c2OC)cc1 [ERMANIN] | 21.8 µM | 45.5 µM
COc1c(-c2ccc(O)cc2)oc2cc(O)cc(O)c2c1=O [ISOKAEMPFERIDE] | 36.2 µM | 4.63 µM
CCCCC/C=C/C(=O)CCc1ccc(O)c(OC)c1 [SHOGAOL] | 77.7 µM | > 100 µM
C/C1=C\CC[C@@]2(C)O[C@@H]2CC(C)(C)/C=C/C1=O [ZERUMBONE EPOXIDE] | 48.4 µM | > 100 µM

More lines, in order of falling IC50 (Cytochrome P450 3A4), values ahead:

IC50 (Cytochrome P450 3A4) | IC50 (Cytochrome P450 2D6) | SMILES
59 µM | > 100 µM | CC(=O)O[C@H]1[C@H](Oc2c(-c3ccc(O)cc3)oc3cc(O)cc(O)c3c2=O)O[C@@H](C)[C@H](O)[C@H]1O
55.8 µM | > 100 µM | CC(=O)O[C@@H]1[C@@H](O)[C@H](C)O[C@@H](Oc2c(-c3ccc(O)cc3)oc3cc(O)cc(O)c3c2=O)[C@@H]1OC(C)=O
42.6 µM | > 100 µM | C/C1=C\[C@H](O)C[C@]2(C)O[C@@H]2CC(C)(C)/C=C/C1=O
35.5 µM | > 100 µM | C/C1=C\CC(C)(C)/C=C/C(=O)/C(C)=C/[C@H](O)C1
21.8 µM | > 100 µM | C/C1=C\CC(C)(C)/C=C/C(=O)/C(C)=C/CC1 [ZERUMBONE]

Reference: ChEMBL document CHEMBL1151241, “Sesquiterpenes and flavonol glycosides from Zingiber aromaticum and their CYP3A4 and CYP2D6 inhibitory activities” (J Nat Prod, 2004)
